Laboratory results as given in PubChem BioAssay AID330 (DTP/NCI, 2004).
Where “and” joins values, the source holds several entries; their conditions need not be identical. Equal values may be shown once. Inconclusive results and toxic doses are left out. The calls were made as follows: active = survival T/C of 150% or more; inactive = T/C below 125% in these data.

Test system: P388 leukemia ip, CD2F1 mice, survival T/C
Assay: NCI In Vivo Anticancer Drug Screen. Data for tumor model P388 Leukemia (intraperitoneal) in CD2F1 (CDF1) mice
Details: endpoint: median survival time, higher = longer survival
Outline: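 Mice carrying the transplanted tumor received test compound or vehicle. Survival was recorded in each group, and the value is the treated-group measurement divided by that of the vehicle-treated control group.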

[1] = dose: 50.0 mg/kg/injection, schedule: Q01DX009 (ip), vehicle: saline
[2] = dose: 100.0 mg/kg/injection, schedule: Q01DX009 (ip), vehicle: saline
[3] = dose: 200.0 mg/kg/injection, schedule: Q01DX009 (ip), vehicle: saline
[4] = dose: 25.0 mg/kg/injection, schedule: Q01DX009 (ip), vehicle: saline with Tween-80
[5] = dose: 50.0 mg/kg/injection, schedule: Q01DX009 (ip), vehicle: saline with Tween-80
[6] = dose: 100.0 mg/kg/injection, schedule: Q04DX003 (ip), vehicle: saline with Tween-80
[7] = dose: 200.0 mg/kg/injection, schedule: Q04DX003 (ip), vehicle: saline with Tween-80
[8] = dose: 100.0 mg/kg/injection, schedule: Q04DX003 (ip), vehicle: Klucel (hydroxypropylcellulose) (HPC)
[9] = dose: 200.0 mg/kg/injection, schedule: Q04DX003 (ip), vehicle: Klucel (hydroxypropylcellulose) (HPC)
[10] = dose: 400.0 mg/kg/injection, schedule: Q04DX003 (ip), vehicle: Klucel (hydroxypropylcellulose) (HPC)
[11] = dose: 100.0 mg/kg/injection, schedule: Q01DX009 (ip), vehicle: saline with Tween-80
[12] = dose: 200.0 mg/kg/injection, schedule: Q01DX009 (ip), vehicle: saline with Tween-80
[13] = dose: 50.0 mg/kg/injection, schedule: Q01DX005 (ip), vehicle: saline with Tween-80
[14] = dose: 100.0 mg/kg/injection, schedule: Q01DX005 (ip), vehicle: saline with Tween-80
[15] = dose: 200.0 mg/kg/injection, schedule: Q01DX005 (ip), vehicle: saline with Tween-80
[16] = dose: 12.5 mg/kg/injection, schedule: Q01DX009 (ip), vehicle: saline
[17] = dose: 100.0 mg/kg/injection, schedule: Q01DX001 (ip), vehicle: Klucel (hydroxypropylcellulose) (HPC)
[18] = dose: 200.0 mg/kg/injection, schedule: Q01DX001 (ip), vehicle: Klucel (hydroxypropylcellulose) (HPC)

Measured: T/C

CC1Cc2c([nH]c3ccccc3c2=O)O1 (configuration not stated)
inactive: [1] 93 % of control | [2] 101 % of control | [3] 100 % of control

CC(C)COP(=O)(OCC(C)C)OCC(C)C
inactive: [4] 100 % of control | [5] 109 % of control | dose: 50.0 mg/kg/injection, schedule: Q04DX003 (ip), vehicle: saline with Tween-80 100 % of control | [6] 90 % of control | [7] 95 % of control

Clc1cc2c(c3ncccc13)OCN(Cc1ccccc1)C2
inactive: [8] 91 % of control | [9] 92 % of control | [10] 92 % of control

CC1=NN(C(=O)c2cccnc2)C(=O)C1N=Nc1ccc(S(=O)(=O)Nc2ccccn2)cc1 (configuration not stated)
inactive: [6] 94 % of control | [7] 93 % of control | dose: 400.0 mg/kg/injection, schedule: Q04DX003 (ip), vehicle: saline with Tween-80 90 % of control

C/C(=N\NC1=NCCN1)c1cn(C2=NCCN2)nc1C
inactive: dose: 15.0 mg/kg/injection, schedule: Q01DX005 (ip), vehicle: saline 99 % of control | dose: 30.0 mg/kg/injection, schedule: Q01DX005 (ip), vehicle: saline 97 % of control | dose: 60.0 mg/kg/injection, schedule: Q01DX005 (ip), vehicle: saline 102 % of control and 106 % of control

Nc1c(Cl)cc(C(=O)O)cc1Cl
inactive: [4] 95 % of control | [5] 90 % of control | [11] 87 % of control | [12] 100 % of control

CCOC(=O)C(NC(=O)OC(C)(C)C)C(C)C (configuration not stated)
inactive: [13] 98 % of control | [14] 100 % of control | [15] 100 % of control

NNC(=O)NN1C(=O)c2cc(S(=O)(=O)O)cc3c(N)c(S(=O)(=O)O)cc(c23)C1=O
inactive: dose: 50.0 mg/kg/injection, schedule: Q01DX005 (ip), vehicle: saline 98 % of control | dose: 100.0 mg/kg/injection, schedule: Q01DX005 (ip), vehicle: saline 104 % of control | dose: 200.0 mg/kg/injection, schedule: Q01DX005 (ip), vehicle: saline 99 % of control

O=C1c2ccccc2-c2cc(O)c3c4c(O)cc5c6c(ccc(c7ccc1c2c73)c64)C(=O)c1ccccc1-5
inactive: [13] 95 % of control | [14] 91 % of control | [15] 89 % of control

CCOC(=O)Cc1ccc(-c2csc(Nc3ccc(Cl)cc3)n2)cc1
inactive: [8] 96 % of control | [9] 104 % of control | [10] 106 % of control

NC(=S)c1ccc(C2Nc3cccnc3N2)cc1 (configuration not stated)
inactive: [5] 93 % of control | [11] 95 % of control | [12] 90 % of control

O=C(Nc1ncc([N+](=O)[O-])s1)c1cccnc1
inactive: dose: 3.12 mg/kg/injection, schedule: Q01DX009 (ip), vehicle: suspension in saline 101 % of control | dose: 6.25 mg/kg/injection, schedule: Q01DX009 (ip), vehicle: suspension in saline 87 % of control | [16] 91 % of control | dose: 12.5 mg/kg/injection, schedule: Q01DX009 (ip), vehicle: suspension in saline 87 % of control | [1] 100 % of control | [3] 88 % of control

C[N+]1(C)CCOC(O)(c2ccccc2)C1 (configuration not stated)
inactive: dose: 6.25 mg/kg/injection, schedule: Q01DX009 (ip), vehicle: saline 104 % of control | [16] 98 % of control | dose: 25.0 mg/kg/injection, schedule: Q01DX009 (ip), vehicle: saline 100 % of control

CCC1OC(O)C=CC1=O (configuration not stated)
inactive: dose: 1.5 mg/kg/injection, schedule: Q01DX005 (ip), vehicle: saline 99 % of control | dose: 3.0 mg/kg/injection, schedule: Q01DX005 (ip), vehicle: saline 93 % of control

COC(=O)/C=C(\C(=O)OC)C(C(C)=O)C(C)=NCCN=C(C)C(C(C)=O)/C(=C/C(=O)OC)C(=O)OC.[Cu] (configuration not stated)
inactive: dose: 25.0 mg/kg/injection, schedule: Q04DX003 (ip), vehicle: Klucel (hydroxypropylcellulose) (HPC) 98 % of control | dose: 50.0 mg/kg/injection, schedule: Q04DX003 (ip), vehicle: Klucel (hydroxypropylcellulose) (HPC) 103 % of control | [8] 107 % of control and 117 % of control

O=C1C(CN2CCCCC2)=C(O)C(c2ccccc2)N1c1ccccc1 (configuration not stated)
inactive: dose: 60.0 mg/kg/injection, schedule: Q01DX005 (ip), vehicle: saline with Tween-80 96 % of control | dose: 120.0 mg/kg/injection, schedule: Q01DX005 (ip), vehicle: saline with Tween-80 95 % of control | dose: 240.0 mg/kg/injection, schedule: Q01DX005 (ip), vehicle: saline with Tween-80 97 % of control

O=[N+]([O-])OI(c1ccccc1)c1ccccc1
inactive: dose: 1.56 mg/kg/injection, schedule: Q01DX009 (ip), vehicle: saline 100 % of control and 101 % of control (2×) | dose: 3.12 mg/kg/injection, schedule: Q01DX009 (ip), vehicle: saline 101 % of control and 104 % of control

CS/N=C(\c1ccccc1)N1CCOCC1
inactive: dose: 60.0 mg/kg/injection, schedule: Q01DX005 (ip), vehicle: Klucel (hydroxypropylcellulose) (HPC) 100 % of control | dose: 120.0 mg/kg/injection, schedule: Q01DX005 (ip), vehicle: Klucel (hydroxypropylcellulose) (HPC) 98 % of control

O=c1cc([N+](=O)[O-])c2c([nH]1)CCC2
inactive: [13] 97 % of control | [14] 94 % of control | [15] 90 % of control

CC(=O)CSCP(=O)(c1ccccc1)c1ccccc1
inactive: [13] 100 % of control | [14] 99 % of control | [15] 99 % of control

O=c1nc(-c2ccccc2)c(-c2ccccc2)n[nH]1
inactive: [5] 100 % of control | [11] 100 % of control | [12] 100 % of control

C=CCSc1nc2ccc(NCN3C(=O)c4ccccc4C3=O)cc2s1
inactive: dose: 50.0 mg/kg/injection, schedule: Q01DX009 (ip), vehicle: Klucel (hydroxypropylcellulose) (HPC) 96 % of control | dose: 100.0 mg/kg/injection, schedule: Q01DX009 (ip), vehicle: Klucel (hydroxypropylcellulose) (HPC) 96 % of control | dose: 200.0 mg/kg/injection, schedule: Q01DX009 (ip), vehicle: Klucel (hydroxypropylcellulose) (HPC) 98 % of control

COC1=CC(=O)C(O)=C/C1=C\C=C\c1ccccc1
inactive: dose: 2.5 mg/kg/injection, schedule: Q01DX009 (ip), vehicle: saline with Tween-80 107 % of control | dose: 5.0 mg/kg/injection, schedule: Q01DX009 (ip), vehicle: saline with Tween-80 104 % of control | dose: 10.0 mg/kg/injection, schedule: Q01DX009 (ip), vehicle: saline with Tween-80 110 % of control

O=C1CC(C2(c3ccccc3)SCCCS2)CO1 (configuration not stated)
inactive: [17] 99 % of control | [18] 98 % of control | dose: 400.0 mg/kg/injection, schedule: Q01DX001 (ip), vehicle: Klucel (hydroxypropylcellulose) (HPC) 100 % of control

CCC(C)c1cnc(CC(C)C)c(=O)n1O (configuration not stated)
inactive: dose: 6.25 mg/kg/injection, schedule: Q01DX009 (ip), vehicle: saline with Tween-80 90 % of control | dose: 12.5 mg/kg/injection, schedule: Q01DX009 (ip), vehicle: saline with Tween-80 91 % of control | [4] 94 % of control | [5] 100 % of control

CC(=O)c1ccccc1N=Nc1ccc(N(CCCl)CCCl)cc1
inactive: [5] 108 % of control | [11] 106 % of control | [12] 112 % of control

Cc1nnc2cccc(Cl)n12
inactive: dose: 50.0 mg/kg/injection, schedule: Q01DX001 (ip), vehicle: Klucel (hydroxypropylcellulose) (HPC) 106 % of control | [17] 106 % of control | [18] 99 % of control

COP(=O)(CCC1OCCO1)OC
inactive: [13] 104 % of control | [14] 104 % of control | [15] 99 % of control

Ic1ccc(Nc2ncnc3sc4c(c23)CCCC4)cc1
inactive: [13] 111 % of control | [14] 94 % of control | [15] 92 % of control

CCOC(=O)C(=NNc1cc(OC)c(Cl)cc1OC)C(=O)OCC
inactive: dose: 50.0 mg/kg/injection, schedule: Q01DX005 (ip), vehicle: Klucel (hydroxypropylcellulose) (HPC) 94 % of control | dose: 100.0 mg/kg/injection, schedule: Q01DX005 (ip), vehicle: Klucel (hydroxypropylcellulose) (HPC) 94 % of control | dose: 200.0 mg/kg/injection, schedule: Q01DX005 (ip), vehicle: Klucel (hydroxypropylcellulose) (HPC) 94 % of control

COc1ccccc1-n1s/c(=N\OC(=O)c2sc3ccccc3c2Cl)sc1=S
inactive: [1] 93 % of control | [2] 94 % of control | [3] 94 % of control
